Measured values taken from patent US7728169B2, “Pharmaceutical compositions of isolated orthorhombic crystalline 4-[6-acetyl-3-[3-(4-acetyl-3-hydroxy-2-propylphenylthio)propoxy]-2-propylphenoxy]butyric acid and methods of use” (Medicinova, Inc., priority 2003, dated 2010).
≈ marks a conversion by molar mass, not a printed value. Read-outs that look alike come from different tables or passages of the source.

How the values were obtained:
[1] = Solubility compared to other polymorphs (solvent not given); format: physicochemical
[2] = Solubility of compound (1) in ethanol/water (2:1); format: physicochemical; conditions: 40° C., stirred one hour, listed as V (form A)
Experimental: Samples of compound (1) (5 g) were suspended in ethanol/water (2:1, 100 mL) and stirred for one hour at temperatures of 22° C., 30° C., and 40° C., respectively. The suspensions were filtered and the solids dried in a vacuum oven at room temperature overnight to give the insoluble material. The solubilities were calculated by subtractive means based on recovered material.

[3] = test system: asthma and allergic diseases; assay: Oral activity for treatment of asthma and allergic diseases; format: in vivo

Row | solubility compared to other crystalline forms [1] | solubility compared to other crystalline forms ([1]; listed as form A) | Solubility [2] [mg/mL] | Structure (SMILES) | oral activity for treatment of asthma and allergic diseases [3]
1 | superior | high | 46 (≈ 86.7 mM) | CCCc1c(SCCCOc2ccc(C(C)=O)c(OCCCC(=O)O)c2CCC)ccc(C(C)=O)c1O [Form V, 4-[6-acetyl-3-[3-(4-acetyl-3-hydroxy-2-propylphenylthio)propoxy]-2-propylphenoxy]butyric acid] | –
2 | – | – | – | CCCc1c(SCCCOc2ccc(C(C)=O)c(OCCCC(=O)O)c2CCC)ccc(C(C)=O)c1O [compound (1), 4-[6-acetyl-3-[3-(4-acetyl-3-hydroxy-2-propylphenylthio)propoxy]-2-propylphenoxy]butyric acid] | orally active
